ChEMBL document CHEMBL3885861, “Open TG-GATES”

Species on record: Rattus norvegicus
Assay: Open TG-GATES - Regimen: Daily Repeat
Format: toxicity, organism-based, Sprague-Dawley
Set-up: regimen Daily Repeat, gender Male, age 6 weeks
Conditions: in vivo, iv, route intravenous injection; for KIDNEY_L / KIDNEY_R / KIDNEY_TOTAL: tissue Kidney; for LIVER: tissue Liver; for ALP / ALT / AST / CRE / DBIL / GLC / IP / K / LDH / PL / RALB / TBIL / TC / TG / TP / gamma-GTP / Na / Ca / BUN: tissue Plasma
[1] = 3 mg/kg, 72 h, dose level Middle, time 3 day
[2] = 3 mg/kg, 72 h, tissue Blood, dose level Middle, time 3 day
[3] = 3 mg/kg, […], dose level Middle, time 7 day
[4] = 3 mg/kg, […], dose level Middle, time 14 day
[5] = 3 mg/kg, […], dose level Middle, time 28 day
[6] = 3 mg/kg, […], tissue Blood, dose level Middle, time 7 day
[7] = 3 mg/kg, […], tissue Blood, dose level Middle, time 14 day
[8] = 3 mg/kg, […], tissue Blood, dose level Middle, time 28 day
[9] = 10 mg/kg, 72 h, dose level High, time 3 day
[10] = 10 mg/kg, 72 h, tissue Blood, dose level High, time 3 day
[11] = 10 mg/kg, […], dose level High, time 7 day
[12] = 10 mg/kg, […], dose level High, time 14 day
[13] = 10 mg/kg, […], dose level High, time 28 day
[14] = 10 mg/kg, […], tissue Blood, dose level High, time 7 day
[15] = 10 mg/kg, […], tissue Blood, dose level High, time 14 day
[16] = 10 mg/kg, […], tissue Blood, dose level High, time 28 day

CARBOPLATIN
TERMINAL_BW [1]: 220.6 g
APTT [2]: 24.1 s
Bas [2]: 0%
Eos [2]: 1.2%
Fbg [2]: 324.4 mg/dL
Ht [2]: 41.2%
Lym [2]: 74.6%
MCHC [2]: 32.6%
MCV [2]: 62.7 fL
Mono [2]: 3%
Neu [2]: 20.6%
PT [2]: 16.5 s
Plat [2]: 127.4 x10_4/uL
RBC [2]: 657.4 x10_4/ul
Ret [2]: 4%
WBC [2]: 89.9 x10_2/uL
KIDNEY_L [1]: 0.9 g
KIDNEY_R [1]: 0.9 g
KIDNEY_TOTAL [1]: 1.9 g
LIVER [1]: 9.8 g
ALP [1]: 1530.2 IU/L
ALT [1]: 43 IU/L
AST [1]: 74.8 IU/L
CRE [1]: 0.2 mg/dL
DBIL [1]: 0 mg/dL
GLC [1]: 173.6 mg/dL
IP [1]: 7.1 mg/dL
K [1]: 4.7 meq/L
LDH [1]: 185.8 IU/L
PL [1]: 129.2 mg/dL
RALB [1]: 3.1 g/dL
TBIL [1]: 0.004 mg/dL
TC [1]: 65 mg/dL
TG [1]: 104.6 mg/dL
TP [1]: 5.5 g/dL
gamma-GTP [1]: 1.4 IU/L
TERMINAL_BW [3]: 244.7 g
TERMINAL_BW [4]: 304.5 g
TERMINAL_BW [5]: 349.4 g
APTT [6]: 23.6 s
Bas [6]: 0%
Eos [6]: 0.8%
Fbg [6]: 296.2 mg/dL
MCHC [6]: 32.4%
MCV [6]: 62.2 fL
Mono [6]: 2.4%
Neu [6]: 16.6%
Plat [6]: 130.4 x10_4/uL
RBC [6]: 649.2 x10_4/ul
Ret [6]: 4.6%
WBC [6]: 97.3 x10_2/uL
APTT [7]: 25.4 s
Bas [7]: 0%
Eos [7]: 0.6%
Fbg [7]: 327 mg/dL
Hb [7]: 14 g/dL
Ht [7]: 41.1%
Lym [7]: 86%
MCHC [7]: 34%
MCV [7]: 61.4 fL
Mono [7]: 3.2%
Neu [7]: 9.2%
Plat [7]: 119.2 x10_4/uL
RBC [7]: 670 x10_4/ul
Ret [7]: 2.8%
WBC [7]: 100.3 x10_2/uL
APTT [8]: 26.7 s
Bas [8]: 0%
Eos [8]: 0.8%
Fbg [8]: 332.2 mg/dL
Ht [8]: 42.1%
Lym [8]: 83%
MCH [8]: 19 pg
MCHC [8]: 35.1%
MCV [8]: 54.2 fL
Mono [8]: 2.8%
Plat [8]: 118.9 x10_4/uL
RBC [8]: 777.6 x10_4/ul
Ret [8]: 1.9%
WBC [8]: 87.9 x10_2/uL
KIDNEY_L [3]: 1.1 g
KIDNEY_R [3]: 1.1 g
KIDNEY_TOTAL [3]: 2.1 g
KIDNEY_L [4]: 1.3 g
KIDNEY_R [4]: 1.3 g
KIDNEY_TOTAL [4]: 2.5 g
KIDNEY_L [5]: 1.3 g
KIDNEY_R [5]: 1.3 g
KIDNEY_TOTAL [5]: 2.6 g
LIVER [3]: 11.2 g
LIVER [4]: 13.5 g
LIVER [5]: 13.9 g
ALP [3]: 1757.2 IU/L
ALT [3]: 40.6 IU/L
AST [3]: 82.6 IU/L
CRE [3]: 0.2 mg/dL
DBIL [3]: 0 mg/dL
GLC [3]: 169.6 mg/dL
IP [3]: 7 mg/dL
K [3]: 4.7 meq/L
LDH [3]: 186 IU/L
Na [3]: 140 meq/L
PL [3]: 143 mg/dL
RALB [3]: 3.1 g/dL
TBIL [3]: 0.006 mg/dL
TC [3]: 70.4 mg/dL
TG [3]: 110 mg/dL
TP [3]: 5.6 g/dL
gamma-GTP [3]: 1.6 IU/L
ALP [4]: 1299.2 IU/L
ALT [4]: 41.4 IU/L
AST [4]: 84.2 IU/L
CRE [4]: 0.2 mg/dL
Ca [4]: 11 mg/dL
DBIL [4]: 0 mg/dL
GLC [4]: 170.4 mg/dL
IP [4]: 6.8 mg/dL
K [4]: 4.4 meq/L
LDH [4]: 147 IU/L
PL [4]: 148 mg/dL
RALB [4]: 3.2 g/dL
TBIL [4]: 0.006 mg/dL
TC [4]: 74.2 mg/dL
TG [4]: 131.2 mg/dL
TP [4]: 6 g/dL
gamma-GTP [4]: 3.4 IU/L
ALP [5]: 1001.8 IU/L
ALT [5]: 40.6 IU/L
AST [5]: 78 IU/L
BUN [5]: 18 mg/dL
CRE [5]: 0.2 mg/dL
Ca [5]: 11 mg/dL
DBIL [5]: 0 mg/dL
GLC [5]: 179.6 mg/dL
IP [5]: 6.1 mg/dL
K [5]: 4.2 meq/L
LDH [5]: 131 IU/L
PL [5]: 134.2 mg/dL
RALB [5]: 3.2 g/dL
TBIL [5]: 0.004 mg/dL
TC [5]: 72.4 mg/dL
TG [5]: 96 mg/dL
TP [5]: 6.3 g/dL
gamma-GTP [5]: 2 IU/L
TERMINAL_BW [9]: 210.3 g
APTT [10]: 23.5 s
Bas [10]: 0%
Eos [10]: 1.2%
Fbg [10]: 288 mg/dL
Hb [10]: 13 g/dL
Ht [10]: 39.9%
Lym [10]: 85.8%
MCHC [10]: 32.7%
MCV [10]: 62.8 fL
Mono [10]: 3.2%
Neu [10]: 8.8%
PT [10]: 16.4 s
Plat [10]: 122.5 x10_4/uL
RBC [10]: 635.4 x10_4/ul
Ret [10]: 2.7%
WBC [10]: 75.4 x10_2/uL
KIDNEY_L [9]: 0.9 g
KIDNEY_R [9]: 1 g
KIDNEY_TOTAL [9]: 1.9 g
LIVER [9]: 9.3 g
ALP [9]: 1408.4 IU/L
ALT [9]: 33.8 IU/L
BUN [9]: 16.4 mg/dL
CRE [9]: 0.2 mg/dL
DBIL [9]: 0.002 mg/dL
GLC [9]: 170.4 mg/dL
IP [9]: 7 mg/dL
K [9]: 4.6 meq/L
Na [9]: 140.2 meq/L
PL [9]: 129.6 mg/dL
RALB [9]: 3.1 g/dL
TBIL [9]: 0.008 mg/dL
TC [9]: 63.2 mg/dL
TG [9]: 84.4 mg/dL
TP [9]: 5.5 g/dL
gamma-GTP [9]: 1.4 IU/L
TERMINAL_BW [11]: 215.5 g
TERMINAL_BW [12]: 246.4 g
TERMINAL_BW [13]: 260.5 g
APTT [14]: 27.1 s
Bas [14]: 0%
Eos [14]: 0.8%
Fbg [14]: 285.8 mg/dL
Hb [14]: 13.7 g/dL
Ht [14]: 41.4%
Lym [14]: 83.6%
MCV [14]: 62.3 fL
Mono [14]: 4.8%
Neu [14]: 9.6%
PT [14]: 15.7 s
Plat [14]: 124.5 x10_4/uL
RBC [14]: 665.8 x10_4/ul
Ret [14]: 1.5%
WBC [14]: 46.7 x10_2/uL
APTT [15]: 26.8 s
Bas [15]: 0%
Eos [15]: 0.4%
Fbg [15]: 299.6 mg/dL
Hb [15]: 14.1 g/dL
Lym [15]: 80.8%
MCHC [15]: 33.9%
MCV [15]: 59.3 fL
Mono [15]: 4.6%
Plat [15]: 50.2 x10_4/uL
RBC [15]: 701 x10_4/ul
Ret [15]: 0.8%
WBC [15]: 57.1 x10_2/uL
APTT [16]: 25.4 s
Bas [16]: 0%
Eos [16]: 0%
Fbg [16]: 275.2 mg/dL
Hb [16]: 11.8 g/dL
Ht [16]: 33.8%
Lym [16]: 81%
MCHC [16]: 34.8%
MCV [16]: 55.8 fL
Mono [16]: 3.6%
PT [16]: 15.6 s
Plat [16]: 66.5 x10_4/uL
RBC [16]: 607.8 x10_4/ul
Ret [16]: 3.1%
WBC [16]: 60.4 x10_2/uL
KIDNEY_L [11]: 0.9 g
KIDNEY_R [11]: 1 g
KIDNEY_TOTAL [11]: 1.9 g
KIDNEY_L [12]: 1.1 g
KIDNEY_R [12]: 1.1 g
KIDNEY_TOTAL [12]: 2.2 g
KIDNEY_L [13]: 1.2 g
KIDNEY_R [13]: 1.2 g
KIDNEY_TOTAL [13]: 2.4 g
LIVER [11]: 8.8 g
ALP [11]: 1401.8 IU/L
ALT [11]: 41.4 IU/L
AST [11]: 102 IU/L
CRE [11]: 0.2 mg/dL
DBIL [11]: 0.002 mg/dL
GLC [11]: 170.8 mg/dL
IP [11]: 7.3 mg/dL
K [11]: 4.4 meq/L
Na [11]: 140.4 meq/L
PL [11]: 118.6 mg/dL
RALB [11]: 3.2 g/dL
TBIL [11]: 0.012 mg/dL
TC [11]: 66 mg/dL
TG [11]: 38.2 mg/dL
TP [11]: 6 g/dL
gamma-GTP [11]: 1 IU/L
ALP [12]: 1127 IU/L
ALT [12]: 48 IU/L
AST [12]: 93.2 IU/L
BUN [12]: 16.6 mg/dL
CRE [12]: 0.2 mg/dL
DBIL [12]: 0 mg/dL
GLC [12]: 170.4 mg/dL
IP [12]: 6.6 mg/dL
K [12]: 4.5 meq/L
LDH [12]: 161 IU/L
PL [12]: 139.8 mg/dL
RALB [12]: 3.2 g/dL
TBIL [12]: 0.016 mg/dL
TC [12]: 74.8 mg/dL
TG [12]: 83.4 mg/dL
TP [12]: 5.8 g/dL
gamma-GTP [12]: 1.8 IU/L
ALP [13]: 682.8 IU/L
ALT [13]: 40 IU/L
AST [13]: 97.8 IU/L
BUN [13]: 22 mg/dL
CRE [13]: 0.2 mg/dL
DBIL [13]: 0.016 mg/dL
GLC [13]: 170 mg/dL
IP [13]: 6.2 mg/dL
K [13]: 4.5 meq/L
LDH [13]: 533 IU/L
PL [13]: 127.8 mg/dL
RALB [13]: 3 g/dL
TBIL [13]: 0.052 mg/dL
TC [13]: 78.6 mg/dL
TG [13]: 48.8 mg/dL
TP [13]: 6 g/dL
gamma-GTP [13]: 1.8 IU/L
